Source: the supplement of paper PMC5844555

What was measured:
Assay in all cases: 3' UTR reporter interaction score (median-centred robust z-score of log2 firefly/Renilla activity); higher = less repression of the 3' UTR reporter
Settings in all cases: HEK293T; 48 h
[1] = system: BRCA2
How it was run: (§1)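 Using DharmaFECT Duo, HEK293T cells (10,000/well, 96-well plates) were co-transfected with 2.5 pmol miRNA mimic, 100 ng firefly luc2P reporter containing the gene's 3' UTR and 20 ng Renilla pRL-TK control, and dual-luciferase activity was read 48 h later. The interaction score is the log firefly/Renilla ratio as a per-plate robust z-score (median, median absolute deviation), median-centred per miRNA, averaged over at least two independent screens; lower, more negative values indicate interaction.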

[2] = system: EZH2
How it was run: as §1

[3] = system: FBXW7
How it was run: as §1

[4] = system: HRAS
How it was run: as §1

[5] = system: MYB
How it was run: as §1

[6] = system: MYCN
How it was run: as §1

[7] = system: MYC
How it was run: as §1

[8] = system: MYT1L
How it was run: as §1

[9] = system: NOTCH1
How it was run: as §1

[10] = system: PHF6
How it was run: as §1

[11] = system: PHOX2B
How it was run: as §1

[12] = system: RB1
How it was run: as §1

[13] = system: TP53
How it was run: as §1

[14] = system: ZEB2
How it was run: as §1

| Sequence | 3' UTR reporter interaction score [1] | 3' UTR reporter interaction score [2] | 3' UTR reporter interaction score [3] | 3' UTR reporter interaction score [4] | 3' UTR reporter interaction score [5] | 3' UTR reporter interaction score [6] | 3' UTR reporter interaction score [7] | 3' UTR reporter interaction score [8] | 3' UTR reporter interaction score [9] | 3' UTR reporter interaction score [10] | 3' UTR reporter interaction score [11] | 3' UTR reporter interaction score [12] | 3' UTR reporter interaction score [13] | 3' UTR reporter interaction score [14] |
| --- | --- | --- | --- | --- | --- | --- | --- | --- | --- | --- | --- | --- | --- | --- |
| AGCUCGGUCUGAGGCCCCUCAG | 1.86 | -0.671 | 0.253 | 0.284 | 0.304 | -0.643 | -0.504 | 3.65 | 1.23 | 0.229 | -1.22 | 3.69 | 0.0655 | 2.05 |
| UGGCAGUGUAUUGUUAGCUGGU | 0.888 | -0.805 | 0.551 | 1.02 | -4.53 | -4.71 | -2.6 | -0.141 | -4.47 | -3.24 | -0.186 | -0.641 | 0.314 | 0.089 |
| CAUCUUACCGGACAGUGCUGGA | 0.868 | 0.0963 | -0.296 | 0.319 | -1.55 | -0.576 | -0.0291 | -0.174 | 0.335 | 0.881 | 0.65 | -0.297 | -0.701 | -2.11 |
| ACAUAGAGGAAAUUCCACGUUU | 1.12 | 0.213 | -1.56 | -0.449 | -0.866 | 0.704 | -0.782 | -0.235 | 0.306 | 1.27 | -1.91 | 0.821 | 1.11 | -1.25 |
| UCAGAACAAAUGCCGGUUCCCAGA | -0.146 | 0.61 | 0.465 | 1.03 | 0.483 | 0.0784 | 0.178 | -0.318 | -0.509 | 0.882 | -0.368 | -0.316 | -1.5 | 0.0144 |
| UAAGGUGCAUCUAGUGCAGUUA | -0.228 | 0.311 | -0.313 | -0.399 | 0.34 | 0.0551 | 0.863 | -0.221 | 0.564 | -1.71 | 0.37 | -0.473 | 0.488 | -0.449 |
| UCCUGUACUGAGCUGCCCCGAG | -2.39 | 0.519 | 0.155 | 0.706 | -1.33 | 0.364 | -0.142 | -1.49 | -0.221 | -0.91 | 1.42 | -2.81 | -0.164 | -2.27 |
| UCCGUCUCAGUUACUUUAUAGCC | 1.46 | 0.571 | -1.56 | -0.357 | -1.75 | -0.29 | 0.0204 | -0.738 | -0.0124 | 2.5 | -0.906 | 0.307 | 1.13 | -2.24 |
| UUCUCCAAAAGAAAGCACUUUCUG | 0.931 | 0.815 | -0.49 | 0.348 | -0.561 | -0.288 | -0.642 | 2.07 | -0.152 | 1.85 | 1.93 | 1.42 | -0.447 | 1.36 |
| UACCCAUUGCAUAUCGGAGUUG | 1.65 | -0.072 | 1.03 | 0.189 | -1.15 | -0.434 | 1.45 | -2.74 | 0.783 | -2.43 | -0.552 | 0.632 | 0.729 | -2.65 |
| AUCACACAAAGGCAACUUUUGU | -0.664 | -1.06 | -0.0452 | -0.777 | 0.989 | 0.776 | 0.0727 | 0.734 | 0.929 | -0.33 | 0.549 | 0.566 | -0.723 | -0.747 |
| AGGCAGUGUAUUGUUAGCUGGC | 1.59 | -0.179 | 0.842 | 0.697 | -4.72 | -5.92 | -2.42 | 0.156 | -4.34 | -4.67 | 0.369 | -1.56 | 1.19 | 0.15 |
| GUCAACACUUGCUGGUUUCCUC | 1.05 | 1.25 | 1.04 | -1.53 | -0.366 | -0.83 | 1.11 | -2.13 | -0.696 | 0.545 | -0.934 | 0.731 | -0.391 | -0.604 |
| UAAAGCUAGAUAACCGAAAGU | 1.05 | 0.346 | -0.801 | 0.407 | 0.558 | -1.46 | 0.416 | -1.97 | 1.01 | -0.609 | 0.965 | 0.722 | 0.374 | -0.694 |
| UUGGUCCCCUUCAACCAGCUGU | 0.152 | 1.28 | 1 | 1.24 | 0.254 | 0.117 | 0.174 | 0.5 | -0.968 | -1.13 | -0.898 | -0.063 | -1.45 | -0.135 |
| UUCACAGGGAGGUGUCAUUUAU | -0.226 | 1.32 | -3.1 | 0.0679 | -0.536 | 1.06 | 0.377 | 0.885 | 0.269 | -1.72 | -0.65 | 0.105 | 0.0668 | -0.846 |
| CAAAGUGCUCAUAGUGCAGGUAG | 0.253 | -0.533 | 1 | 0.757 | -1.73 | -0.62 | -0.364 | -1.37 | 1.52 | 0.651 | 1.67 | 0.42 | 0.0738 | 1.98 |
| UCGGAUCCGUCUGAGCUUGGCU | 1.24 | 1.84 | 0.968 | 1.22 | -4.97 | 1.3 | -0.287 | -1.06 | 0.076 | -0.555 | -0.526 | -0.185 | -0.412 | 0.123 |
| AUCAACAGACAUUAAUUGGGCGC | 1.26 | 1.19 | 1.67 | 1.56 | 0.0314 | -0.34 | -1.29 | -0.0651 | -1.2 | -1.06 | -0.111 | 1.49 | -1.55 | 1.91 |
